From US20140120060A1, “TREATMENT OF RHEUMATOID ARTHRITIS AND ASTHMA USING PI3 KINASE INHIBITORS” (INFINITY PHARMACEUTICALS, INC., priority 2012, published 2014)
Values joined by “and” are separate entries in the source; they are usually repeats but may differ in a detail not shown here. Identical values can stand only once. “Also recorded” adds a separate entry of the source. Marks after values point to notes of the source that are not given here.

Columns and labels:
[1] = test system: established type II collagen-induced arthritis; experiment: Rat collagen-induced arthritis model (established); assay type: in vivo
Protocol: Etanercept (10 mg/kg) was administered subcutaneously on days 10 and 13 as a positive control. The study was terminated on day 17.

[2] = test system: developing or established type II collagen arthritis; experiment: Rat collagen-induced arthritis model, alone or in combination with methotrexate or etanercept; assay type: in vivo; settings: 2.5, 5 or 50 mg/kg daily oral, alone or in combination with MTX or etanercept
Protocol: Treatment was administered either alone or in combination with the reference compounds MTX, or etanercept. All rats were administered MTX, vehicle 2 (1% CMC in water), or vehicle 1 on days 0-20 in order to keep dose manipulations consistent for all groups. Animals were terminated on day 21. Efficacy evaluation was based on daily ankle caliper measurements, ankle diameter expressed as area under the curve (AUC), and terminal hind paw weights.

human P-glycoprotein = target: T1, human P-glycoprotein (Homo sapiens, UniProt P08183); experiment: Interaction with human P-glycoprotein in Caco-2 cell monolayers; assay type: in vitro ADME
T1 construct: endogenous in cells; host or cells: Caco-2 cell monolayers

[3] = Pharmacokinetics in Beagle dogs; assay type: in vivo, dog; settings: PO 5 mg/kg
central nervous system = experiment: Neurofunctional study (FOB, motor activity) in Sprague-Dawley rat; settings: male rats
TLR9 = experiment: CPG-A induced cytokine production in PBMCs; assay type: cell-based, human
Protocol: Human PBMCs were stimulated with CPG-A. CPG-A selectively activates PDCs, inducing IFN-α production via TLR9. IFN-α is a PDC cell selective readout. Primary human PBMCs from two normal human donors were used as a source of PDC cells. 200 K cells per well were used. […] Then the cells were treated with the specified concentration of CPG-A for 16 hours. RPMI-5% serum was employed.
(§1) These experiments were conducted using PBMCs.

[4] = In vitro genetic toxicity studies
PI3K δ = PI3K δ (Homo sapiens, UniProt O00329); experiment: In vitro PI3K δ inhibition (lipid kinase assay, TLC or HTRF); settings: selectivity
[5] = test system: ovalbumin-induced pulmonary inflammation; experiment: Rat ovalbumin allergic asthma model
[6] = Plasma protein binding, monkey plasma; assay type: in vitro ADME; settings: 100 μM (41700 ng/mL)
From the text: […]. […] […].

[7] = test system: hemodynamic and electrocardiographic parameters; experiment: Cardiovascular study in instrumented cynomolgus monkey; assay type: in vivo
From the text: Four non-naive, male monkeys implanted with radiotelemetry transmitters were utilized during the conduct of this study.

neutrophil migration = experiment: Neutrophil migration into rat air pouches stimulated with IL-8; assay type: in vivo
From the text: In one embodiment, provided herein is a method for screening for anti-inflammatory or anti-asthma compound in an animal (e.g., rat) pouch assay. In one embodiment, provided herein is a method for screening for anti-inflammatory or anti-asthma compound comprising (a) creating a pouch at the back of an animal (e.g., rat) and introducing a stimuli into the pouch; (b) administrating a compound to the animal; (c) measuring the influx of leukocyte (e.g., neutrophil and/or eosinophil) into the pouch; and (d) comparing the influx of leukocyte to that of a control vehicle; wherein a reduction in the influx of leukocyte indicates the compound is an anti-inflammatory or anti-asthma compound.
The ability of PI3K-δ,γ inhibitors to block leukocyte (e.g., neutrophil) migration was examined in a rat air pouch model. Air pouches were created by subcutaneous air injections into the back of the rats on Days 0 and 3. […] Animals dosed with vehicle only, with or without IL-8 stimulation, served as study controls.

[8] = Pharmacokinetics in Sprague-Dawley rats; assay type: in vivo, rat
PBMCs = experiment: LPS induced cytokine production in PBMCs; assay type: cell-based, human
Protocol: as §1

[9] = In vivo rat micronucleus assay
[10] = 13-week repeat-dose safety study in cynomolgus monkeys; settings: both sexes, cynomolgus monkey, in vivo, oral, Day 91, combined sexes, 5 mg/kg/day, read-out: mean AUC0-24 hr at the NOAEL
Protocol: The no observed adverse effect level (NOAEL) in the 13-week rat study was 25 mg/kg/day (150 mg/m^2/day) and the NOAEL in the 13-week monkey study was 5 mg/kg/day (60 mg/m^2/day). On Day 91, the mean AUC0-24 hr values for combined sexes at the NOAELs were 14150 ng*h/mL in the rat, and 4015 ng*h/mL in the monkey.

TL2/TLR6 = experiment: PAM2CSK4 induced cytokine production in PBMCs; assay type: cell-based, human
Protocol: as §1
PAM2CSK4 signals through TL2/TLR6, which plays a role in atherosclerosis, colitis, ischemic injury, e.g., cardiac events and stroke.

Murine B-cell = Murine B-cell proliferation; assay type: cell-based; settings: Mus musculus

T1 sequence (P08183 whole entry): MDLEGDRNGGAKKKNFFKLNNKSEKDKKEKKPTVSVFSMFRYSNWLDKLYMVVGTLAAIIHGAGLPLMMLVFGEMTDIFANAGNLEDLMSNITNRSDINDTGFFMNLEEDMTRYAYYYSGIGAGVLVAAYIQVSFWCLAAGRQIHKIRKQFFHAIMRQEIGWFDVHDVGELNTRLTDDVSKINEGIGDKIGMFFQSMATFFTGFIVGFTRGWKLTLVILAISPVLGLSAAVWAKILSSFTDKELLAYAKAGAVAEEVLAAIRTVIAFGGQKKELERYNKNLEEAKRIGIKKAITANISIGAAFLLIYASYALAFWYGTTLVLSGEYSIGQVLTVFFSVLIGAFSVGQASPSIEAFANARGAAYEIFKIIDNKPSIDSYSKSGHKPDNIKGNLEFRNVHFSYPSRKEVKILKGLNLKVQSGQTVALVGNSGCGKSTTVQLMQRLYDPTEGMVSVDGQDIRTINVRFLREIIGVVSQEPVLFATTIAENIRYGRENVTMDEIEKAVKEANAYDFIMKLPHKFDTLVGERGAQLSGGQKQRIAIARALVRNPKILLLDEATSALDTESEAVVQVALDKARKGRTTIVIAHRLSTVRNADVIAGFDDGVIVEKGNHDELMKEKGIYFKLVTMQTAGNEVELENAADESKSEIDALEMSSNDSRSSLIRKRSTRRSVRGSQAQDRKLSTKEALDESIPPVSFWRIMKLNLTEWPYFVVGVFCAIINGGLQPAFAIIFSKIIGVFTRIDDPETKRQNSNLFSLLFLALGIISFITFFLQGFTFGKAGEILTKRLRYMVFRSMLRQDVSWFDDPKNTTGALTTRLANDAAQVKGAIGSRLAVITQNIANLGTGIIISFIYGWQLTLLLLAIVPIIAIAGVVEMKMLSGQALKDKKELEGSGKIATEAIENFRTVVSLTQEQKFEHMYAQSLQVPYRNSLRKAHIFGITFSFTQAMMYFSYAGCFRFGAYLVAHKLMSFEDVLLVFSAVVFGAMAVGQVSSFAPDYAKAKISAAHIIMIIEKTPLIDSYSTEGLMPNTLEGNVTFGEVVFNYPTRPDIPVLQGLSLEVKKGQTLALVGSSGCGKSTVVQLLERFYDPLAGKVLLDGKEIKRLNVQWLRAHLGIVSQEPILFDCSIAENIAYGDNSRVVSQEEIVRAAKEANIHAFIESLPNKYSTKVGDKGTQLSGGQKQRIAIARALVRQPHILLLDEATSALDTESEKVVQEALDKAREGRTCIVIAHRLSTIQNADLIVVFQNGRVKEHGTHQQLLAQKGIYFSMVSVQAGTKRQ
Sequence of PI3K δ (O00329 whole entry): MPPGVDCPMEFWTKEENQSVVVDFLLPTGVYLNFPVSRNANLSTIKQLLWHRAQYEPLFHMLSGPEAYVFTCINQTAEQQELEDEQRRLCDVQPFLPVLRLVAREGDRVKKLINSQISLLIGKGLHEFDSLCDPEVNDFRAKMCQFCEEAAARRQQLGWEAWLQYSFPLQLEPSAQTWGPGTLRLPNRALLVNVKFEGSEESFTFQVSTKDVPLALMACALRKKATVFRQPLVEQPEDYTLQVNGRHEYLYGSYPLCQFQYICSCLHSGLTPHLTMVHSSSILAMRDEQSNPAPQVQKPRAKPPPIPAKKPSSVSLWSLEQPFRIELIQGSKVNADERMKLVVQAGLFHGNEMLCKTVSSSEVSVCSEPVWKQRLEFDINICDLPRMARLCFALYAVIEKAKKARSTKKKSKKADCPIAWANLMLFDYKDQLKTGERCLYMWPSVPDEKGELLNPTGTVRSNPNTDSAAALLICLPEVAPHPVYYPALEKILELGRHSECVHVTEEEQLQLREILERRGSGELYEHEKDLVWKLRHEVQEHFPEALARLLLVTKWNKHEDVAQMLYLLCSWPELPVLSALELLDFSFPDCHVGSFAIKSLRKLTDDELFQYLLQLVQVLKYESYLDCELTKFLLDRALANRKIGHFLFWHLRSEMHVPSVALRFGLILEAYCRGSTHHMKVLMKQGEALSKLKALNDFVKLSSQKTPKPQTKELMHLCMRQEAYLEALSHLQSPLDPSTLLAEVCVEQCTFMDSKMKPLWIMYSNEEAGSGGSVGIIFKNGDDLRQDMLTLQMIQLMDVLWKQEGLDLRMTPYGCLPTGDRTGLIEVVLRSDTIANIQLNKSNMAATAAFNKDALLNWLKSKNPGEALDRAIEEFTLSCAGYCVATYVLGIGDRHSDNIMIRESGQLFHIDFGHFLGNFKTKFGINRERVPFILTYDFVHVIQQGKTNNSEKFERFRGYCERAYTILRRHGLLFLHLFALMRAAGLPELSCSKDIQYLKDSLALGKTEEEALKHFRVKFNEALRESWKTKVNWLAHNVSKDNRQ
Sequence of PI3K δ (P27986 whole entry partner): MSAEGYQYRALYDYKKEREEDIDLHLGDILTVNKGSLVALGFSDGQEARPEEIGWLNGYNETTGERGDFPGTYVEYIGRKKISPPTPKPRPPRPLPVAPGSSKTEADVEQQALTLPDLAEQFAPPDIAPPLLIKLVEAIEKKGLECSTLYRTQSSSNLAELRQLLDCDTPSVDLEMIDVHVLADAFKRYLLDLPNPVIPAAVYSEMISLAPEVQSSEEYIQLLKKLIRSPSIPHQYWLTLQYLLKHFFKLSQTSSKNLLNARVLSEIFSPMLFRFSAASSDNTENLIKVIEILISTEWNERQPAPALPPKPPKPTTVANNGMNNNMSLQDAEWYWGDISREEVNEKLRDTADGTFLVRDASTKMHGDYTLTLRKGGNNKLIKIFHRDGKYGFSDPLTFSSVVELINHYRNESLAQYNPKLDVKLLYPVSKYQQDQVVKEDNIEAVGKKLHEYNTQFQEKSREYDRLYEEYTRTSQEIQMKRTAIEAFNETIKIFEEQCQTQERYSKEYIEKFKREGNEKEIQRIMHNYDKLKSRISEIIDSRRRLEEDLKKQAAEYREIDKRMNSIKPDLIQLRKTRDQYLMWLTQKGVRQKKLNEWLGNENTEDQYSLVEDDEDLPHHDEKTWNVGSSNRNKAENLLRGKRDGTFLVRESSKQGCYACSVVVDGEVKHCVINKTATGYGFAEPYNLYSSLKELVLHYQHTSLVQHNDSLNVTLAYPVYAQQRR

## C[C@H](Nc1ncnc2[nH]cnc12)c1cc2cccc(Cl)c2c(=O)n1-c1ccccc1 [Compound 292]
[1]; PO QD days 10-16, all doses 0.5-10 mg/kg, not at 0.1 mg/kg
  mean ankle diameter at the end of the treatment period vs vehicle: significantly decreased
[1]; rat CIA model
  serum IgE levels vs vehicle controls: Significant increases
  summed ankle histological scores: prevented inflammation and protected joint bone and cartilage
[2]
  effects on parameters of developing and established type II collagen arthritis: beneficial effects
  tolerability: well tolerated
Human P-glycoprotein
  P-gp substrate status: is a P-gp substrate
  inhibition of active transport of other P-gp substrates: has the potential to inhibit the active transport of other P-gp substrates
[3]; calculated using 0.5 mg/kg IV dose as reference and AUC0-last
  Foral: 97^g,i %
[3]; calculated using 1 mg/kg IV dose as reference and AUC0-last
  Foral: 40% and 40^h,i %
Central nervous system; 2 h after a 350 mg/kg dose
  locomotor activity: Significant decreases
Central nervous system; dose levels ≦50 mg/kg
  effects on the central nervous system: No effects
Central nervous system; single oral dose up to 350 mg/kg, up to 24 h post-dose
  qualitative or quantitative FOB parameters: no changes
TLR9; PBMCs
  CPG-A induced IL-6 production: Inhibited
  CPG-A induced IL-8 production: Inhibited
  CPG-A induced TNF-α production: Inhibited
TLR9; human PBMCs
  CPG-A induced IFN-α production: potently inhibited; also recorded: blocked
[4]
  genetic toxicity: no genetic toxicity
PI3K δ
  lower dose inhibiting PI3K-δ compared to PI3K-γ, PI3K-β or PI3K-α: at least 10 fold
[5]; 10 mg/kg PO
  levels of TNF-α, KC/GRO, IL-13 and IL-5 in the BAL: inhibited; also recorded: significantly suppressed
[5]; 1 and 10 mg/kg PO, 48 hours after re-challenge
  neutrophils and eosinophils in the BAL: significantly reduced
[5]; FIG. 16
  leukocyte migration into the bronchoalveolar space: inhibited
[6]
  protein bound in monkey plasma: 76.8%
[7]; male cynomolgus monkeys, single oral dose of 5, 30 and 150 mg/kg
  hemodynamic or electrocardiographic parameters: No Compound 292-related effects
[7]; up to 150 mg/kg
  waveform abnormalities or arrhythmias: no waveform abnormalities or arrhythmias
Neutrophil migration; 1 mg/kg PO
  neutrophil influx into IL-8 stimulated air pouches: only slightly
Neutrophil migration; 10 and 25 mg/kg PO
  neutrophil influx into IL-8 stimulated air pouches: inhibits; also recorded: significantly blocked
[8]; Sprague-Dawley rats, PO 10 mg/kg suspension
  Foral: 57%
[8]; Sprague-Dawley, rat, in vivo, intravenous, 2 mg/kg
  half-life: < 2 h
PBMCs
  LPS induced IL-1 production: enhanced
  LPS induced IL-6 production: enhanced
  LPS induced IL-8 production: did not detectably affect
  LPS induced TNF-α production: enhanced
[9]
  adverse effect in micronucleus assay: no direct adverse effect
[10]
  AUC(0-t): 4020 ng·h/mL
TL2/TLR6
  PAM2CSK4 induced IL-1 production: Inhibited
  PAM2CSK4 induced IL-6 production: Inhibited
  PAM2CSK4 induced IL-8 production: Inhibited
  PAM2CSK4 induced TNF-α production: Inhibited
Murine B-cell
  EC50: 0.5 nM
